Marks after values point to notes of the source that are not given here.
How the values were obtained:
[1] = tested on: human microvascular cells; test: Endothelial cord formation assay; type: cell-based; for Effect on endothelial cord formation: key: + = Inhibition of angiogenesis; − = No inhibition of angiogenesis; T = Toxic; *= cell rounding @ 10 µg/ml
Procedure, shortened: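 Human microvascular endothelial cells plated on collagen matrix with VEGF and basic fibroblast growth factor; compound effect assessed on resulting cord-like tubular structures.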

[2] = tested on: chorioallantoic membrane capillaries; test: Chorioallantoic membrane (CAM) model of capillary growth; type: in vivo, chick; details: for Percentage positive, Assay 1 / Percentage positive, Assay 2 / Percentage positive, Mean: 3-day embryo
Source text: The growing capillaries within the chorioallantoic membrane model (CAM model) have been used as a system in which to evaluate the effect of agents on their potential to inhibit new vessel growth. Neovascularization occurs most aggressively over the first week of embryonic development. Thereafter capillary growth is characterized by principally “elongation” rather than “de novo” formation. In the standard assay, agents are applied locally to a region of the embryo over which neovascularization will occur. Agents are assessed by their ability to inhibit this process, as evaluated by visual examination about 7 days after application. […] The assay utilized is described in detail in Auerbach et al., Pharm. Ther. 51, 1991, 1-11.

Murine B16 melanoma = test: In vitro cell growth inhibition (assay of Baker et al.); type: cell-based; details: except at very high concentrations
Source text: As set forth in Table 7 below, all malignant tumors evaluated in tissue culture, endothelial cells and vascular smooth muscle cells were sensitive to inhibition. Thus, compound 1436 has application in the control of growth factor dependent proliferation of many types of tissue.

[3] = 20 μg applied, some vascular irritation noted
[4] = 40 μg applied, some vascular irritation noted

CC(CC[C@@H](OS(=O)(=O)O)C(C)C)[C@H]1CCC2C3C(CC[C@@]21C)[C@@]1(C)CC[C@H](NCCCNCCCCN)C[C@@H]1C[C@H]3O (some centres unmarked) [squalamine]
Concentration that inhibits cord formation [1]: about 0.1 μg/ml | Effect on endothelial cord formation ([1]; 0.01 μg/ml): − | Effect on endothelial cord formation ([1]; 0.1 μg/ml): + | Effect on endothelial cord formation ([1]; 1.0 μg/ml): + | Effect on endothelial cord formation ([1]; 10.0 μg/ml): + | Percentage positive, Assay 1 ([2]; 0.65 μg applied): 28% | Percentage positive, Assay 1 ([2]; 1.25 μg applied): 18% | Percentage positive, Assay 2 ([2]; 1.25 μg applied): 18% | Percentage positive, Mean ([2]; 1.25 μg applied): 18% | Percentage positive, Assay 1 ([2]; 2.5 μg applied): 35% | Percentage positive, Assay 2 ([2]; 2.5 μg applied): 18% | Percentage positive, Mean ([2]; 2.5 μg applied): 27% | Percentage positive, Assay 1 ([2]; 5.0 μg applied): 91% | Percentage positive, Assay 2 ([2]; 5.0 μg applied): 57% | Percentage positive, Mean ([2]; 5.0 μg applied): 74% | Percentage positive, Mean ([2]; 20 μg applied): 55% | Percentage positive, Assay 1 [2, 3]: 52* % | Percentage positive, Assay 2 [2, 3]: 58* % | Percentage positive, Mean ([2]; 40 μg applied): 32% | Percentage positive, Assay 1 [2, 4]: 50* % | Percentage positive, Assay 2 [2, 4]: 13* % | Percentage positive ([2]; 13-day embryo, 5.0 μg applied): 0/26 | Cytostatic activity against B16 in culture (Murine B16 melanoma): minimal cytostatic activity
